For 19 molecules, mortality results are on record in patent publication US8680269B2, “Pesticidal compositions” (Dow AgroSciences, LLC., priority 2009, dated 2014).

Experiment [1] deals with corn earworm (CEW; Helicoverpa zea). As to the kind of experiment: Insecticidal test for corn earworm, 128-well diet tray assay. It counts as in vivo. The following applies: 144 h, 50 μg/cm2 on artificial diet, second instar larvae, six days at 25° C. On the procedure:
(§1) Bioassays on corn earworm (CEW; Helicoverpa zea: Lepidoptera) were conducted using a 128-well diet tray assay. Three to five second instar CEW larvae were placed in each well (3 mL) of the diet tray that had been previously filled with 1 mL of artificial diet to which 50 μg/cm^2 of the test compound (dissolved in 50 μL of 90:10 acetone-water mixture) had been applied (to each of eight wells) and then allowed to dry. Trays were covered with a clear self-adhesive cover, and held at 25° C., 14:10 light-dark for six days. Percent mortality was recorded for the larvae in each well; activity in the eight wells was then averaged.

The test system of experiment [2] is beet armyworm (BAW; Spodoptera exigua). As to the kind of experiment: Insecticidal test for beet armyworm, 128-well diet tray assay. The following applies: 144 h, 50 μg/cm2 on artificial diet, second instar larvae, six days at 25° C. It counts as in vivo. The protocol: as §1, with “beet armyworm (BAW; Spodoptera exigua:” for “corn earworm (CEW; Helicoverpa zea:”, “BAW” for “CEW”

Bounds are passed on as bounds.

Regarding `CSc1cc(C)c(NC(=S)N/N=C/c2ccc(-c3ncn(-c4ccc(OC(F)(F)F)cc4)n3)cc2)c(C)c1` [Compound 100], the mortality at 50 µg/cm2 in experiment [1] and in experiment [2] was 50 to 100% each time.
As to `FC(F)(F)Oc1ccc(-n2cnc(-c3ccc(/C=N/NC(=S)Nc4ccccc4I)cc3)n2)cc1` [Compound 60], the mortality at 50 µg/cm2 in experiment [1] and in experiment [2] was 50 to 100% throughout.
For `COc1cccc(C(C)NC(=S)N/N=C/c2ccc(-c3ncn(-c4ccc(OC(F)(F)F)cc4)n3)cc2)c1` (centres unmarked) [Compound 153], the mortality at 50 µg/cm2 in experiment [1] and in experiment [2] was 50 to 100% in each case.
Regarding `CC(C)c1cccc(C(C)C)c1NC(=S)N/N=C/c1ccc(-c2ncn(-c3ccc(OC(F)(F)F)cc3)n2)cc1` [Compound 107], the mortality at 50 µg/cm2 in experiment [1] and in experiment [2] was 50 to 100% throughout.
Take `CCCN(/N=C/c1ccc(-c2ncn(-c3ccc(OC(F)(F)F)cc3)n2)cc1)C(=S)Nc1ccc(OC)cc1C` [Compound 87]: the mortality at 50 µg/cm2 in experiment [1] and in experiment [2] was less than 50% in each case.
Turning to `Cc1cc(F)cc(C)c1NC(=S)N/N=C/c1ccc(-c2ncn(-c3ccc(OC(F)(F)F)cc3)n2)cc1` [Compound 112], the mortality at 50 µg/cm2 in experiment [1] and in experiment [2] was 50 to 100% throughout.
For the molecule `CC(NC(=S)N/N=C/c1ccc(-c2ncn(-c3ccc(OC(F)(F)F)cc3)n2)cc1)c1ccccc1` (centres unmarked) [Compound 152], the mortality at 50 µg/cm2 in experiment [1] and in experiment [2] was 50 to 100% in each case.
For `Cc1cc(C)c(NC(=S)N/N=C/c2ccc(-c3ncn(-c4ccc(OC(F)(F)F)cc4)n3)cc2)c(Cl)c1` [Compound 104], the mortality at 50 µg/cm2 in experiment [1] and in experiment [2] was 50 to 100% each time.
`COc1ccc(NC(=S)N(C)/N=C/c2ccc(-c3ncn(-c4ccc(OC(F)(F)F)cc4)n3)cc2)c(C)c1` [Compound 85]: the mortality at 50 µg/cm2 in experiment [1] and in experiment [2] was 50 to 100% each time.
Turning to `COc1cc(OC)c(NC(=S)N/N=C/c2ccc(-c3ncn(-c4ccc(OC(F)(F)F)cc4)n3)cc2)c(OC)c1` [Compound 88], the mortality at 50 µg/cm2 in experiment [1] and in experiment [2] was 50 to 100% each time.
Turning to `COc1ccc(NC(=S)N/N=C/c2ccc(-c3ncn(-c4ccc(OC(F)(F)F)cc4)n3)cc2)c(C(C)C)c1` [Compound 121], the mortality at 50 µg/cm2 in experiment [1] and in experiment [2] was 50 to 100% each time.
Take `Cc1cc(C)c(NC(=S)N/N=C/c2ccc(-c3ncn(-c4ccc(OC(F)(F)C(F)(F)F)cc4)n3)cc2)c(C)c1` [Compound 123]: the mortality at 50 µg/cm2 in experiment [1] and in experiment [2] was 50 to 100% throughout.
Regarding `CC(NC(=S)N/N=C/c1ccc(-c2ncn(-c3ccc(OC(F)(F)F)cc3)n2)cc1)c1cccnc1` (centres unmarked) [Compound 158], the mortality at 50 µg/cm2 in experiment [1] and in experiment [2] was 50 to 100% each time.
As for `FC(F)(F)Oc1ccc(-n2cnc(-c3ccc(/C=N/NC(=S)NC4CCc5ccccc54)cc3)n2)cc1` (centres unmarked) [Compound 145], the mortality at 50 µg/cm2 in experiment [1] and in experiment [2] was 50 to 100% each time.
Consider `COC(=O)C1CC(c2ccc(/C=N/NC(=S)Nc3c(C)cccc3C)cc2)=NN1c1ccc(OC(F)(F)F)cc1` (centres unmarked) [Compound 130], for which the mortality at 50 µg/cm2 in experiment [1] and in experiment [2] was 50 to 100% each time.
In the case of `COc1cccc(NC(=S)N/N=C/c2ccc(-c3ncn(-c4ccc(OC(F)(F)F)cc4)n3)cc2)c1C` [Compound 90], the mortality at 50 µg/cm2 in experiment [1] and in experiment [2] was 50 to 100% throughout.
As for `Cc1cccc(C)c1NC(=S)N/N=C/c1ccc(C2=NN(c3ccc(OC(F)(F)F)cc3)CC2)cc1` [Compound 140], the mortality at 50 µg/cm2 in experiment [1] and in experiment [2] was 50 to 100% each time.
As for `FC(F)(F)Oc1ccc(-n2cnc(-c3ccc(/C=N/NC(=S)NCc4ccsc4)cc3)n2)cc1` [Compound 154], the mortality at 50 µg/cm2 in experiment [1] and in experiment [2] was 50 to 100% throughout.
Regarding `COc1cc(C)cc(C)c1NC(=S)N/N=C/c1ccc(-c2ncn(-c3ccc(OC(F)(F)F)cc3)n2)cc1` [Compound 103], the mortality at 50 µg/cm2 in experiment [1] and in experiment [2] was 50 to 100% throughout.

For orientation: mortality means the percentage killed. The low end stands for a weak lethal effect, the high end for a strong lethal effect.
